Reference: patent US8354447B2, “mGLU receptors antagonists for treating disorders associated with mGLU receptors including addiction and depression” (The Scripps Research Institute, priority 2002, dated 2013)
“And” between values parts separate entries of the source, which are not always exact repeats. Equal values may be shown once.

How the values were obtained:
male Wistar rats = experiment: ICSS thresholds during spontaneous nicotine withdrawal; format: in vivo, rat
Text: Animals were trained to respond according to a modification of the discrete-trial current-threshold procedure of Kornetsky and Esposito (Fed Proc 38:2473-2476, 1979), which has been described in detail previously (Markou and Koob, 1992 Physiol Behav 51:111-119). Briefly, a trial was initiated by the delivery of a non-contingent electrical stimulus. […] The current intensity delivered was adjusted for each animal and typically ranged from 50 to 200 μA. […] After a variable inter-trial interval (7.5-12.5 sec, average of 10 sec), another trial was initiated with the delivery of a non-contingent electrical stimulus. […] Responding during the inter-trial interval delayed the onset of the next trial by 12.5 sec. Current levels were varied in alternating descending and ascending series. A set of three trials was presented for each current intensity. Current intensities were altered in 5 μA steps. In each testing session, four alternating descending-ascending series were presented. […] The overall threshold of the session was defined as the mean of the thresholds for the four individual series. Each testing session was ˜30 min in duration. The latency between the onset of the non-contingent stimulus and a positive response was recorded as the response latency. The response latency for each test session was defined as the mean response latency of all trials during which a positive response occurred. After establishment of stable ICSS reward thresholds, rats were tested in the ICSS procedure once daily except for the spontaneous nicotine withdrawal experiment when rats were tested at time-points according to the experimental design.
Osmotic mini-pumps were surgically removed from nicotine-treated rats (n=15) (defined as rats having been prepared with mini-pumps delivering 3.16 mg/kg/day nicotine free-base for at least seven days) or corresponding control rats (n=17; rats prepared with vehicle-containing mini-pumps). All rats were then tested in the ICSS procedure at 12, 18, 24, 36, 48 and 72 hr after the removal of osmotic mini-pumps. These time points were chosen based on the time course of threshold elevations previously observed during spontaneous nicotine withdrawal after removal of nicotine-delivering osmotic mini-pumps (Harrison et al., 2001, Neuropsychopharmacology 25:55-71; K.L.). […] Thirty min before being tested at the 18 h time-point, one group of nicotine withdrawing and one group of control rats were injected with LY341495 (1 mg/kg); the remaining rats were injected with vehicle.

Male DBA/2J mice = experiment: Intravenous nicotine self-administration in drug-naive mice; format: in vivo, mouse; details: 0.048 μg/inf nicotine, saline pretreatment
Experimental: Acute self-administration of nicotine was carried out using a previously described method (Semenova et al. 1995, 1999; Kuzmin et al. 1996a, 1997). The tails of the mice were fixed to the surface of the apparatus during the testing sessions to allow drug delivery; the fixing of the tail allowed the mice to move all of their four paws, head and entire body. […] The only cue associated with the delivery of the drug or vehicle infusion was the noise of the pump. Mice were tested either once or twice, with approximately one month between each test. The second test only occurred in a subset of the original set of mice (2-7 pairs of mice from each of the original groups). This was done to increase the number of subjects/condition, and involved randomly assigning and testing these mice under a different set of conditions than in the original test (i.e., different nicotine and/or MPEP dose).
Saline or one of four nicotine doses (0.016, 0.048, 0.16, 0.48 μg/inf) were made available to different groups of animals. Each group consisted of 9-17 pairs of animals, including 2-7 mice per group that had previously undergone one testing session at least one month previously (see above). Pre-treatment with MPEP (0, 5, 10, 20 mg/kg intraperitoneally) occurred 15 minutes prior to the initiation of the test session.
Data analyses were based on the comparison of both active and passive mouse nose-pokes in each pair, using the formula: R=log(AT/PT)−log(ABL/PBL), where (AT/PT) is the ratio of the total number of active versus passive mouse nose-pokes during the 30-min test, and (ABL/PBL) is the ratio of the total number of active versus passive mouse nose-pokes during the 10-min pre-test. […] Some data-points (9/237 pairs of mice) were excluded from the final analyses based on whether or not they lay within 2 standard deviations of the group mean for that specific condition. Nicotine self-administration data, obtained after saline pre-treatment, were analyzed using a one-way ANOVA with nicotine (4 levels) defined as the between-subjects factor. R-criterion data were analyzed using two-way ANOVAs with MPEP dose (4 levels) and nicotine dose (4 levels) defined as the between-subjects factors. Pre-planned R-criterion data analyses were performed using one-way ANOVAs for each available dose of self-administered nicotine and saline, with MPEP dose (4 levels) defined as the between-subject factor. Appropriate individual comparisons were performed using the Student-Newman-Keuls post hoc test. […] Body weights and pre-test nose-poke activity levels were analyzed with three-way ANOVAs (nicotine dose, MPEP dose and mouse, i.e. active/passive, defined as between-subjects factors).

**Q.** `CN1CCCC1c1cccnc1` (single isomer, unassigned; (-)) [nicotine, (−)-1-methyl-2-(3-pyridyl) pyrrolidine] was tested. Which “ICSS reward threshold elevation” value (male Wistar rats; 12 h after removal of mini-pumps delivering 3.16 mg/kg/day nicotine free-base, two groups before treatment (n=8, n=7)) did it give?
**A.** 117.67±3.1% and 119.93±3.5%

**Q.** And the ICSS Thresholds (male Wistar rats; withdrawal from chronic nicotine treatment)?
**A.** produced robust ICSS threshold elevations compared to control rats

**Q.** What about the “self-administration (R-criterion)” value (Male DBA/2J mice) of the same molecule?
**A.** significantly different from saline administration
